Data: US20250197601A1, “COMPOSITION” (LMS CO., LTD., priority 2023, published 2025)

Assay: Solubility of each synthesized compound in multiple solvents at room temperature
Format: physicochemical
Conditions: room temperature (about 25° C.); for Solubility in MEK: methyl ethyl ketone; for Solubility in MIBK: methyl isobutyl ketone
Description: The solubility of each compound synthesized above was evaluated. Solubility was evaluated based on the following criteria by evaluating the solubility of each compound in multiple solvents (cyclohexanone, toluene, methyl isobutyl ketone (MIBK), or methyl ethyl ketone (MEK)) at room temperature (about 25° C.).
• A: A case where the solubility is 1% by mass or more. • B: A case where the solubility is 0.5 mass % or more and less than 1 mass %. • C: A case where the solubility is 0.2 mass % or more and less than 0.5 mass %. • D: A case where solubility is less than 0.2 mass %.

Structure (SMILES)	Solubility in Cyclohexanone	Solubility in MEK	Solubility in MIBK	Solubility in Toluene
CCOC(=O)Nc1cc2c(cc1C1=C([O-])/C(=c3\cc4c(cc3NC(=O)OCC)=[N+](CCOC)C(C)C4(C)C)C1=O)C(C)(C)C(C)N2CCOC (centres unmarked) [Synthesis Example 1]	A (A case where the solubility is 1% by mass or more.)	A (A case where the solubility is 1% by mass or more.)	A (A case where the solubility is 1% by mass or more.)	B (A case where the solubility is 0.5 mass % or more and less than 1 mass %.)
CCCCC(CC)COC(=O)Nc1cc2c(cc1C1=C([O-])/C(=c3\cc4c(cc3NC(=O)OCC(CC)CCCC)=[N+](CCOC)C(C)C4(C)C)C1=O)C(C)(C)C(C)N2CCOC (centres unmarked) [Synthesis Example 2]	A (A case where the solubility is 1% by mass or more.)	A (A case where the solubility is 1% by mass or more.)	A (A case where the solubility is 1% by mass or more.)	B (A case where the solubility is 0.5 mass % or more and less than 1 mass %.)
CCCCC(CC)COC(=O)Nc1cc2c(cc1C1=C([O-])/C(=c3\cc4c(cc3NC(=O)OCC(CC)CCCC)=[N+](C)C(C)C4(C)C)C1=O)C(C)(C)C(C)N2C (centres unmarked) [Synthesis Example 3]	A (A case where the solubility is 1% by mass or more.)	A (A case where the solubility is 1% by mass or more.)	A (A case where the solubility is 1% by mass or more.)	A (A case where the solubility is 1% by mass or more.)
CCCCCCN1c2cc(NC(C)=O)c(C3=C([O-])/C(=c4\cc5c(cc4NC(C)=O)=[N+](CCCCCC)C(C)C5(C)C)C3=O)cc2C(C)(C)C1C (centres unmarked) [Synthesis Example 4]	A (A case where the solubility is 1% by mass or more.)	A (A case where the solubility is 1% by mass or more.)	A (A case where the solubility is 1% by mass or more.)	B (A case where the solubility is 0.5 mass % or more and less than 1 mass %.)
CCCCCCN1c2cc(NC(=O)C(CC)CCCC)c(C3=C([O-])/C(=c4\cc5c(cc4NC(=O)C(CC)CCCC)=[N+](CCCCCC)C(C)C5(C)C)C3=O)cc2C(C)(C)C1C (centres unmarked) [Synthesis Example 5]	A (A case where the solubility is 1% by mass or more.)	A (A case where the solubility is 1% by mass or more.)	A (A case where the solubility is 1% by mass or more.)	A (A case where the solubility is 1% by mass or more.)
CCCCCCCCS(=O)(=O)Nc1cc2c(cc1C1=C([O-])/C(=c3\cc4c(cc3NS(=O)(=O)CCCCCCCC)=[N+](CCCCCC)C(C)C4(C)C)C1=O)C(C)(C)C(C)N2CCCCCC (centres unmarked) [Synthesis Example 6]	A (A case where the solubility is 1% by mass or more.)	A (A case where the solubility is 1% by mass or more.)	A (A case where the solubility is 1% by mass or more.)	A (A case where the solubility is 1% by mass or more.)
CC(=O)Nc1cc2c(cc1C1=C([O-])/C(=c3\cc4c(cc3NC(C)=O)=[N+](C)C(C)C4(C)C)C1=O)C(C)(C)C(C)N2C (centres unmarked) [Synthesis Example 7]	A (A case where the solubility is 1% by mass or more.)	B (A case where the solubility is 0.5 mass % or more and less than 1 mass %.)	A (A case where the solubility is 1% by mass or more.)	B (A case where the solubility is 0.5 mass % or more and less than 1 mass %.)
C/C(C1=Nc2ccc3ccccc3c2C1(C)C)=C1/C(=O)C(C(/C)=C2/Nc3ccc4ccccc4c3C2(C)C)=C1O [Synthesis Example 12]	B (A case where the solubility is 0.5 mass % or more and less than 1 mass %.)	C (A case where the solubility is 0.2 mass % or more and less than 0.5 mass %.)	B (A case where the solubility is 0.5 mass % or more and less than 1 mass %.)	C (A case where the solubility is 0.2 mass % or more and less than 0.5 mass %.)
CC(C)(C)C1=C\C(=C/C=C/C=C/c2cc(C(C)(C)C)[o+]c3ccccc23)c2ccccc2O1 [Synthesis Example 13]	A (A case where the solubility is 1% by mass or more.)	A (A case where the solubility is 1% by mass or more.)	A (A case where the solubility is 1% by mass or more.)	B (A case where the solubility is 0.5 mass % or more and less than 1 mass %.)
Cc1ccc2c(c1)/C(=C/C=C/C=C/c1cc(C(C)(C)C)[o+]c3ccc(C)cc13)C=C(C(C)(C)C)O2 [Synthesis Example 14]	A (A case where the solubility is 1% by mass or more.)	A (A case where the solubility is 1% by mass or more.)	A (A case where the solubility is 1% by mass or more.)	A (A case where the solubility is 1% by mass or more.)
CC(C)(C)C1=C\C(=C/C=C(Cl)/C=C/c2cc(C(C)(C)C)[o+]c3ccccc23)c2ccccc2O1 [Synthesis Example 15]	A (A case where the solubility is 1% by mass or more.)	A (A case where the solubility is 1% by mass or more.)	A (A case where the solubility is 1% by mass or more.)	B (A case where the solubility is 0.5 mass % or more and less than 1 mass %.)
COc1ccc2c(c1)/C(=C/C=C(Cl)/C=C/c1cc(C(C)(C)C)[o+]c3ccc(OC)cc13)C=C(C(C)(C)C)O2 [Synthesis Example 16]	A (A case where the solubility is 1% by mass or more.)	A (A case where the solubility is 1% by mass or more.)	A (A case where the solubility is 1% by mass or more.)	A (A case where the solubility is 1% by mass or more.)
CC(C)(C)C1=C\C(=C/C=C/C=C/c2cc(-c3ccccc3)[o+]c(C(C)(C)C)c2)C=C(c2ccccc2)O1 [Synthesis Example 17]	B (A case where the solubility is 0.5 mass % or more and less than 1 mass %.)	B (A case where the solubility is 0.5 mass % or more and less than 1 mass %.)	A (A case where the solubility is 1% by mass or more.)	B (A case where the solubility is 0.5 mass % or more and less than 1 mass %.)
CC(C)(C)C1=C\C(=C/C=C(Cl)/C=C/c2cc(-c3ccc(C(C)(C)C)cc3)[o+]c(C(C)(C)C)c2)C=C(c2ccc(C(C)(C)C)cc2)O1 [Synthesis Example 18]	A (A case where the solubility is 1% by mass or more.)	A (A case where the solubility is 1% by mass or more.)	A (A case where the solubility is 1% by mass or more.)	B (A case where the solubility is 0.5 mass % or more and less than 1 mass %.)
